Results on seven molecules are retold here after patent publication US20090111778A1, “2-Keto-Oxazoles as Modulators of Fatty Acid Amide Hydrolase” (priority 2005, published 2009).

Like-named read-outs stand apart in the source and are kept apart here.

One experiment concerns the target T1, human FAAH (Homo sapiens, UniProt O00519).
T1 construct: expressed in transfected cells
T1 sequence (O00519 1-579): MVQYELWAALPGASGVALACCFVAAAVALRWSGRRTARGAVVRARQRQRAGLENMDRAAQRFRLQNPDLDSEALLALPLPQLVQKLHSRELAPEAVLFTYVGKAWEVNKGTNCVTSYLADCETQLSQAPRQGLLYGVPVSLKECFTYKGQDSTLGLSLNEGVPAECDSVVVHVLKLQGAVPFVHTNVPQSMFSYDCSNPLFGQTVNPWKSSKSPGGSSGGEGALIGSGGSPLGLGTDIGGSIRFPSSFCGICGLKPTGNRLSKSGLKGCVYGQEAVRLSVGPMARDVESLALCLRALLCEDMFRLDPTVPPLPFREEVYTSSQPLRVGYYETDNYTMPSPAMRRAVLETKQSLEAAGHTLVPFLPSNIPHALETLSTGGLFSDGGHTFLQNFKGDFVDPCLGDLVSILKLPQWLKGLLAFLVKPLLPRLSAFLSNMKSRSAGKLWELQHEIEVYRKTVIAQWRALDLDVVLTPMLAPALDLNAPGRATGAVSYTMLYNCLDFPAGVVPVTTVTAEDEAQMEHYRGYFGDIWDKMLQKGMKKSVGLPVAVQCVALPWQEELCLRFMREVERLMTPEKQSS
Nature of the experiment: Assay Method 1: FAAH assay, hydrolysis of 3H-anandamide by homogenate of SK-N-MC cells transfected with human FAAH. The experiment is classed as biochemical. An outline of the steps: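 Homogenate of SK-N-MC cells stably expressing human FAAH (G418-selected clones) incubated with compound and 80 nM [1-3H-ethanolamine]anandamide for 1 h at rt. Released 3H-ethanolamine separated from substrate by activated-charcoal filtration, then counted by scintillation.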

The next experiment concerns the target T2, rat FAAH (Rattus norvegicus, UniProt P97612).
T2 construct: expressed in transfected cells
T2 sequence (P97612 1-579): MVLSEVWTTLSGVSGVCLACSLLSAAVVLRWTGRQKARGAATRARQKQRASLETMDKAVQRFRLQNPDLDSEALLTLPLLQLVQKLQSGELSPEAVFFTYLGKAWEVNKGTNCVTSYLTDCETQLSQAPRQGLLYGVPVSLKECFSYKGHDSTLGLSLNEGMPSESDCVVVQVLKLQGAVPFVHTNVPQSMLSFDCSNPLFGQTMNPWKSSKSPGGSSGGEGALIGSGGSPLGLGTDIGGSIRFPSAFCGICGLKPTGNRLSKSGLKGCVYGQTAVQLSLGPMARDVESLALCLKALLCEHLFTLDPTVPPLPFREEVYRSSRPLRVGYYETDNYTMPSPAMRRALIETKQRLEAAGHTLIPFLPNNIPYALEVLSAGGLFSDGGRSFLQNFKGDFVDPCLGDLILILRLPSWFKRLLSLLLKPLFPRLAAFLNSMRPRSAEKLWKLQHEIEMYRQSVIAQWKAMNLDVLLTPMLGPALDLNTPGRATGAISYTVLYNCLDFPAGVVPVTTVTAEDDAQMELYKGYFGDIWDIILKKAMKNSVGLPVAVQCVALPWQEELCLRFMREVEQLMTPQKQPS
Kind of experiment: Assay Method 2: FAAH assay, hydrolysis of 3H-anandamide by homogenate of SK-N-MC cells transfected with rat FAAH. The experiment is classed as biochemical. Conditions: T84 or transfected SK-N-MC cell homogenate, 3H-AEA tracer 80 nM, rt 1 h, pH 9. An outline of the steps:
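Rat FAAH activity from homogenate of G418-selected, electroporated SK-N-MC clones was measured as release of radiolabelled ethanolamine from 3H-anandamide. After 1 h at rt, charcoal filtration retained substrate, and scintillation counting of the flow-through gave the read-out.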

Setting [1] is: human FAAH, T84 or transfected SK-N-MC cell homogenate, 3H-AEA tracer 80 nM, rt 1 h, pH 9, read-out: Assay 1 IC50.

On to `COc1ccc(CN2CCC(CCCC(=O)c3ncco3)CC2)cc1` [Example 16, 4-[1-(4-Methoxy-benzyl)-piperidin-4-yl]-1-oxazol-2-yl-butan-1-one], for which the IC50 (in general, the midpoint of a concentration-inhibition curve) stood at 132 nM against human FAAH and 663 nM at rat FAAH.
For the molecule `Cc1cccc(CC(=O)N2CCC(CCCC(=O)c3ncco3)CC2)c1` [Example 39, 1-Oxazol-2-yl-4-[1-(2-m-tolyl-acetyl)-piperidin-4-yl]-butan-1-one], the IC50 was found to be 834 nM on human FAAH (setting [1]) and 463 nM on rat FAAH.
In the same order, the values of `Cc1cccc2cc(CN3CCC(CCCC(=O)c4ncco4)CC3)c(Cl)nc12` [Example 99, 4-[1-(2-Chloro-8-methyl-quinolin-3-ylmethyl)-piperidin-4-yl]-1-oxazol-2-yl-butan-1-one] are 5 nM and 8 nM.
For `O=C(CCCC1CCN(C(=O)COc2ccc(Cl)cc2)CC1)c1ncco1` [Example 35, 4-{1-[2-(4-Chloro-phenoxy)-acetyl]-piperidin-4-yl}-1-oxazol-2-yl-butan-1-one], the IC50 stood at 19 nM on human FAAH (setting [1]) and 38 nM against rat FAAH.
In the same order, the values of `CC(C)(C)OC(=O)N1CCC(CCCC(=O)c2ncco2)CC1` [Example 1, 4-(4-Oxazol-2-yl-4-oxo-butyl)-piperidine-1-carboxylic acid tert-butyl ester] are 1.8 nM and 27 nM.
In the same order, the values of `CC(C)(C)OC(=O)N1CCC(CCCC(=O)c2ncc(-c3ccco3)o2)CC1` [Example 120, 4-[4-(5-Furan-2-yl-oxazol-2-yl)-4-oxo-butyl]-Piperidine-1-carboxylic acid tert-butyl ester] are 2 nM and 21 nM.
In the same order, the values of `O=C(CCCC1CCN(C(=O)CCC2CCCCC2)CC1)c1ncco1` [Example 50, 4-[1-(3-Cyclohexyl-propionyl)-piperidin-4-yl]-1-oxazol-2-yl-butan-1-one] are 2 nM and 10 nM.
